In ChEMBL document CHEMBL4177690, “(E)-3-(3,4,5-Trimethoxyphenyl)-1-(pyridin-4-yl)prop-2-en-1-one, a heterocyclic chalcone is a potent and selective CYP1A1 inhibitor and cancer chemopreventive agent” (Bioorg Med Chem Lett, 2017):

What was measured:
[1] = species on record: Homo sapiens; experiment: Selectivity ratio of IC50 for recombinant human CYP1B1 expressed in HEK293 cells to IC50 for recombinant human CYP1A1 expressed in HEK293 cells; format: cell-based
[2] = target: Cytochrome P450 2D6 (Homo sapiens, UniProt P10635); experiment: Inhibition of human CYP2D6 expressed in yeast microsomal membranes using 7-ethoxy-methyloxy-3-cyanocoumarin as substrate measured after 10 mins by fluorescence assay; format: ADME, cell membranes, Microsomal Membrane
Cytochrome P450 2D6, sequence (P10635 whole entry): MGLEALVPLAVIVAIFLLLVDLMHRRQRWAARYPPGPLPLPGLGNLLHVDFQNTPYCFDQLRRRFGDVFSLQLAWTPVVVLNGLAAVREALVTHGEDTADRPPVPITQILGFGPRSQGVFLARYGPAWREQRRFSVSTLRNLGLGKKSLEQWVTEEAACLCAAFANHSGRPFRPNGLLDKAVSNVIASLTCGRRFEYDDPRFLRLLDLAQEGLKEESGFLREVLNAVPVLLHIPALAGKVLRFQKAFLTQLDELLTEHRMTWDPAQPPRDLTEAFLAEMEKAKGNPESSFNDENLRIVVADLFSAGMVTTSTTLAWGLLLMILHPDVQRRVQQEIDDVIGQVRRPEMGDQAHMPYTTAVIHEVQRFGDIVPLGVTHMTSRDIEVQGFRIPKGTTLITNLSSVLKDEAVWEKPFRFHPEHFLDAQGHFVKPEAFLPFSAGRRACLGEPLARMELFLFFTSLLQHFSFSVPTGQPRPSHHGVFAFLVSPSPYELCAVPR

[3] = target: Cytochrome P450 3A4 (Homo sapiens, UniProt P08684); experiment: Inhibition of human CYP3A4 expressed in yeast microsomal membranes using dibenzylfluorescein as substrate measured after 10 mins by fluorescence assay; format: ADME, cell membranes, Microsomal Membrane
Cytochrome P450 3A4, sequence (P08684 whole entry, the tested form may be a part): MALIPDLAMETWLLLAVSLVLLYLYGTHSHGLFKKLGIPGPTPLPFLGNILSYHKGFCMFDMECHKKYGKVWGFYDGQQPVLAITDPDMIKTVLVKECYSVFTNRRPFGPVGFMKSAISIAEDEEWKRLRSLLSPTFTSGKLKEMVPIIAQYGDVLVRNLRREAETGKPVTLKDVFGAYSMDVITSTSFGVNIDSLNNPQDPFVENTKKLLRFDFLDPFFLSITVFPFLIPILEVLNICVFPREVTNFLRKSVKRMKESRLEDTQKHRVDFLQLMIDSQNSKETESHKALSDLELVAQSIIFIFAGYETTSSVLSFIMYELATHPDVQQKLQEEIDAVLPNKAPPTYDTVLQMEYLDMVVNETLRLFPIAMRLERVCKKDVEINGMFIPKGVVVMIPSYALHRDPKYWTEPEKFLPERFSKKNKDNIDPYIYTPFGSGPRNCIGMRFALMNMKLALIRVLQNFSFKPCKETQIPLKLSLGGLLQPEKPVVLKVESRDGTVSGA

[4] = target: T1, Aryl hydrocarbon receptor (Homo sapiens, UniProt P35869); experiment: Antagonist activity at recombinant human eGFP-fused Ahr expressed in yeast cells co-expressing ARNT assessed as inhibition of benzo(a)pyrene-induced Ahr activation at 1 uM measured after 18 hrs by fluorescence assay; format: cell-based
T1 sequence (P35869 whole entry): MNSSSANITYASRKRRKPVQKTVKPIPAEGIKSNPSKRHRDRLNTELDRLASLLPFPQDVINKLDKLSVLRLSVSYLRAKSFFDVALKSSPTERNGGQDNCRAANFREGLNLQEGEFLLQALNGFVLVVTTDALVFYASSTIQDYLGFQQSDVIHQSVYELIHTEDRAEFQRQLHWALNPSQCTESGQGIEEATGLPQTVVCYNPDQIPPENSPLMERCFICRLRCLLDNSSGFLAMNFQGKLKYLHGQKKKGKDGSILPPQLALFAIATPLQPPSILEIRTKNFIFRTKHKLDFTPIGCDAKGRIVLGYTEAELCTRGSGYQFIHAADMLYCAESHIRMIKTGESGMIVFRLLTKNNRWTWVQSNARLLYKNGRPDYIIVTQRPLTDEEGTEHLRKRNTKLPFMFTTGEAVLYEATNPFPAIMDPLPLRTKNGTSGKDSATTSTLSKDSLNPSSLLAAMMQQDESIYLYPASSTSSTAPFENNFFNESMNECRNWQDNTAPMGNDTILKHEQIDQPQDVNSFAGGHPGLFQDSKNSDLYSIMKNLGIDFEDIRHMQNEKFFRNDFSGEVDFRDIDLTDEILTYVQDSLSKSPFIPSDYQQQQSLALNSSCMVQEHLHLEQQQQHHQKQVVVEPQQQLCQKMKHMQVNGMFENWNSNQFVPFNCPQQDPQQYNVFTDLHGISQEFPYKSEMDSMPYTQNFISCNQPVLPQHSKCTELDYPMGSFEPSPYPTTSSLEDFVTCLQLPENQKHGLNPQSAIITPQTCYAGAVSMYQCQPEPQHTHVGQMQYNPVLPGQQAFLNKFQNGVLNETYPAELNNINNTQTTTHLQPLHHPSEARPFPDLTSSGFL

[5] = target: T2, Cytochrome P450 1B1 (Homo sapiens, UniProt Q16678); experiment: Inhibition of human CYP1B1 expressed in yeast cells; format: cell-based
T2 sequence (Q16678 whole entry): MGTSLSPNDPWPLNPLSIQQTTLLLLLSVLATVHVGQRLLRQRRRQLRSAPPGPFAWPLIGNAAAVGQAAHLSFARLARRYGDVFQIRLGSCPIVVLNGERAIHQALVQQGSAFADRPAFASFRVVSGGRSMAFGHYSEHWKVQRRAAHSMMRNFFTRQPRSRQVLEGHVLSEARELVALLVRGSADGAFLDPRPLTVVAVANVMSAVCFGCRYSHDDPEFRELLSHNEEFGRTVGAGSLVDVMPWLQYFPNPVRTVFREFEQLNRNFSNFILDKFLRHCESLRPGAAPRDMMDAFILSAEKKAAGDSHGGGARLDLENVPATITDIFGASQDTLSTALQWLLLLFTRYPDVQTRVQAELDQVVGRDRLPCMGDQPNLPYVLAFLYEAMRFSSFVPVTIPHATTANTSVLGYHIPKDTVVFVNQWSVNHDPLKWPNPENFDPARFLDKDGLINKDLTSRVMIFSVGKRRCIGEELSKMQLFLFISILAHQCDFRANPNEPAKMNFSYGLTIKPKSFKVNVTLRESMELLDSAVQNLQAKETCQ

[6] = species on record: Homo sapiens; experiment: Selectivity ratio of IC50 for human CYP1B1 expressed in yeast microsomal membranes to IC50 for human CYP1A1 expressed in yeast microsomal membranes; format: cell membranes
[7] = species on record: Homo sapiens; experiment: Selectivity ratio of IC50 for recombinant human CYP2C19 to IC50 for recombinant human CYP1A1
[8] = target: Cytochrome P450 2C19 (Homo sapiens, UniProt P33261); experiment: Inhibition of human CYP2C19 expressed in yeast microsomal membranes using 3-cyano-7-ethoxycoumarin as substrate measured after 10 mins by fluorescence assay; format: ADME, cell membranes, Microsomal Membrane
Cytochrome P450 2C19, sequence (P33261 whole entry): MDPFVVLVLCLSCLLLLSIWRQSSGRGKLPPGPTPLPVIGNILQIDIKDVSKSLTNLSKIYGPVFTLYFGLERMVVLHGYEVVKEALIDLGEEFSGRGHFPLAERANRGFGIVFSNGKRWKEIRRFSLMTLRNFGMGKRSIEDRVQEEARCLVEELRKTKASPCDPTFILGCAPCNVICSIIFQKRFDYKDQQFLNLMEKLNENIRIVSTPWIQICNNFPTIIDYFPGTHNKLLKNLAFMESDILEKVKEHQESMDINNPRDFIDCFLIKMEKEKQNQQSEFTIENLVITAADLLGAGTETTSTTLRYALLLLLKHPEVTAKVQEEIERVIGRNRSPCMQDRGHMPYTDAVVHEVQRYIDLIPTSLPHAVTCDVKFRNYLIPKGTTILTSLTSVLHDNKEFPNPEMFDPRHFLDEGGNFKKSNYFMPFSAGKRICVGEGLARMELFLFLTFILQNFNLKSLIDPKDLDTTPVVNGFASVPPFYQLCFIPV

[9] = target: T3, Cytochrome P450 2J2 (Homo sapiens, UniProt P51589); experiment: Inhibition of human CYP2J2 expressed in yeast cells; format: ADME, cell-based
T3 sequence (P51589 whole entry): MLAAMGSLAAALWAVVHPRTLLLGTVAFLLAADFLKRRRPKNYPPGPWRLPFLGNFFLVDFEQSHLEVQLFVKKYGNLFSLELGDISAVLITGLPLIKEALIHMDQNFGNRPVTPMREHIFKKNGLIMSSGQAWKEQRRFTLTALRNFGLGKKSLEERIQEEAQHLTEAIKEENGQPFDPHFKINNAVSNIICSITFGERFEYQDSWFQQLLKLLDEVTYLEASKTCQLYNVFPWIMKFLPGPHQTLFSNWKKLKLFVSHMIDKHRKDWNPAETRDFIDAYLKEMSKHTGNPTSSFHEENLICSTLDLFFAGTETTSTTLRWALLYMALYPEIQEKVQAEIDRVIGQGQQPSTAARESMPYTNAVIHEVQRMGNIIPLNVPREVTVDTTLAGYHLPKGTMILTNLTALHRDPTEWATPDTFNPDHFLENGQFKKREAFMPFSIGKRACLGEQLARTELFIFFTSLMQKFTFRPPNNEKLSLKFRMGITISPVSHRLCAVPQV

[10] = target: T4, Cytochrome P450 1A1 (Homo sapiens, UniProt P04798); experiment: Inhibition of human CYP1A1 expressed in yeast cells; format: cell-based
T4 sequence (P04798 whole entry): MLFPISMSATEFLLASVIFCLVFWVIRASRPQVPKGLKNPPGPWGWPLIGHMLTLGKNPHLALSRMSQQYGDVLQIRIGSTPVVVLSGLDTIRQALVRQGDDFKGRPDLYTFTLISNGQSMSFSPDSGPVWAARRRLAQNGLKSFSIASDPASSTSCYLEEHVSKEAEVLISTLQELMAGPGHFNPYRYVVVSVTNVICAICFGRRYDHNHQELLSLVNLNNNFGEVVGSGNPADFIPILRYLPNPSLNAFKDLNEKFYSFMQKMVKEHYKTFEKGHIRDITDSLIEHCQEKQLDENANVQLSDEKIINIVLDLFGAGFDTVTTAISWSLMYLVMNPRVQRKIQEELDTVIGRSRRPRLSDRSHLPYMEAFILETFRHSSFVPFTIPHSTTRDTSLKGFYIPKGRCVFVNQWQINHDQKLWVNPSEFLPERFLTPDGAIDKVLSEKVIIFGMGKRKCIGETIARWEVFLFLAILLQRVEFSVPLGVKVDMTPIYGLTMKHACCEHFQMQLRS

[11] = species on record: Homo sapiens; experiment: Selectivity ratio of IC50 for recombinant human CYP2C9 to IC50 for recombinant human CYP1A1

IC50 [2]: 5 µM | IC50 [3]: > 20 µM | inhibition (INH) [4]: Active | IC50 [5]: 6.12 µM | Ratio IC50 [6]: > 10 | Ratio IC50 [7]: > 100 | IC50 [8]: > 20 µM | IC50 [9]: > 20 µM | IC50 [10]: 0.15 µM | Ratio IC50 [11]: > 100
SMILES: COc1cc(/C=C/C(=O)c2ccncc2)cc(OC)c1OC
Ratio IC50 [1]: < 10
